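Five compound concentrations were applied to cells in 96-well plates for 48 hours; endpoints were derived by simple linear interpolation of the resulting dose-response curve. TGI is the concentration that stops growth completely.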
system: KM20L2 colon; experiment: DTP human tumour cell line panel, 48 h

SMILES | TGI
CCNCCCCNCCCCNCCCCNCCCCNCC | > 100 µM
COC1=CC(=O)c2c(ccc3ncnc(N)c23)C1=O | 34.7 µM
O=C1O[C@@H](c2ccccc2)C[C@H]1CN1CCOCC1 | > 100 µM
O=C1C=CC(=O)c2c(O)ccc(O)c21 | 4.97 µM

system: DMS 273 small cell lung; experiment: DTP human tumour cell line panel, 48 h

SMILES | TGI
CCNCCCCNCCCCNCCCCNCCCCNCC | > 100 µM
COC1=CC(=O)c2c(ccc3ncnc(N)c23)C1=O | 10.7 µM
O=C1C=CC(=O)c2c(O)ccc(O)c21 | 7.55 µM

system: M19-MEL melanoma; experiment: DTP human tumour cell line panel, 48 h

SMILES | TGI
CCNCCCCNCCCCNCCCCNCCCCNCC | > 100 µM
COC1=CC(=O)c2c(ccc3ncnc(N)c23)C1=O | 3.14 µM
O=C1C=CC(=O)c2c(O)ccc(O)c21 | 1.49 µM

system: OVCAR-3 ovarian; experiment: DTP human tumour cell line panel, 48 h

SMILES | TGI
CCNCCCCNCCCCNCCCCNCCCCNCC | > 100 µM
COC1=CC(=O)c2c(ccc3ncnc(N)c23)C1=O | 3.03 µM
O=C1O[C@@H](c2ccccc2)C[C@H]1CN1CCOCC1 | > 100 µM
O=C1C=CC(=O)c2c(O)ccc(O)c21 | 5.87 µM

system: HCT-15 colon; experiment: DTP human tumour cell line panel, 48 h

SMILES | TGI
CCNCCCCNCCCCNCCCCNCCCCNCC | > 100 µM
COC1=CC(=O)c2c(ccc3ncnc(N)c23)C1=O | 4.13 µM
O=C1O[C@@H](c2ccccc2)C[C@H]1CN1CCOCC1 | > 100 µM
O=C1C=CC(=O)c2c(O)ccc(O)c21 | 1.65 µM

system: BT-549 breast; experiment: DTP human tumour cell line panel, 48 h

SMILES | TGI
CCNCCCCNCCCCNCCCCNCCCCNCC | > 100 µM
COC1=CC(=O)c2c(ccc3ncnc(N)c23)C1=O | 3.2 µM
O=C1C=CC(=O)c2c(O)ccc(O)c21 | 4.8 µM

system: NCI/ADR-RES ovarian; experiment: DTP human tumour cell line panel, 48 h

SMILES | TGI
CCNCCCCNCCCCNCCCCNCCCCNCC | > 100 µM
COC1=CC(=O)c2c(ccc3ncnc(N)c23)C1=O | 6.39 µM
O=C1C=CC(=O)c2c(O)ccc(O)c21 | 3.72 µM

system: A498 renal; experiment: DTP human tumour cell line panel, 48 h

SMILES | TGI
CCNCCCCNCCCCNCCCCNCCCCNCC | > 100 µM
COC1=CC(=O)c2c(ccc3ncnc(N)c23)C1=O | 3.9 µM
O=C1O[C@@H](c2ccccc2)C[C@H]1CN1CCOCC1 | > 100 µM
O=C1C=CC(=O)c2c(O)ccc(O)c21 | 7.78 µM

system: SF-295 CNS; experiment: DTP human tumour cell line panel, 48 h

SMILES | TGI
CCNCCCCNCCCCNCCCCNCCCCNCC | > 100 µM
COC1=CC(=O)c2c(ccc3ncnc(N)c23)C1=O | 6.76 µM
O=C1O[C@@H](c2ccccc2)C[C@H]1CN1CCOCC1 | > 100 µM
O=C1C=CC(=O)c2c(O)ccc(O)c21 | 16.1 µM

system: SNB-78 CNS; experiment: DTP human tumour cell line panel, 48 h

SMILES | TGI
CCNCCCCNCCCCNCCCCNCCCCNCC | > 100 µM
COC1=CC(=O)c2c(ccc3ncnc(N)c23)C1=O | 4.89 µM
O=C1O[C@@H](c2ccccc2)C[C@H]1CN1CCOCC1 | > 100 µM
O=C1C=CC(=O)c2c(O)ccc(O)c21 | 6.37 µM

system: DU-145 prostate; experiment: DTP human tumour cell line panel, 48 h

SMILES | TGI
CCNCCCCNCCCCNCCCCNCCCCNCC | > 100 µM
COC1=CC(=O)c2c(ccc3ncnc(N)c23)C1=O | 3.34 µM
O=C1C=CC(=O)c2c(O)ccc(O)c21 | 28 µM

system: CAKI-1 renal; experiment: DTP human tumour cell line panel, 48 h

SMILES | TGI
CCNCCCCNCCCCNCCCCNCCCCNCC | > 73.1 µM
COC1=CC(=O)c2c(ccc3ncnc(N)c23)C1=O | 3.27 µM
O=C1O[C@@H](c2ccccc2)C[C@H]1CN1CCOCC1 | 41.3 µM
O=C1C=CC(=O)c2c(O)ccc(O)c21 | 2.82 µM

system: COLO 205 colon; experiment: DTP human tumour cell line panel, 48 h

SMILES | TGI
CCNCCCCNCCCCNCCCCNCCCCNCC | > 100 µM
COC1=CC(=O)c2c(ccc3ncnc(N)c23)C1=O | 6.77 µM
O=C1O[C@@H](c2ccccc2)C[C@H]1CN1CCOCC1 | > 100 µM
O=C1C=CC(=O)c2c(O)ccc(O)c21 | 1.66 µM

system: T-47D breast; experiment: DTP human tumour cell line panel, 48 h

SMILES | TGI
CCNCCCCNCCCCNCCCCNCCCCNCC | > 100 µM
COC1=CC(=O)c2c(ccc3ncnc(N)c23)C1=O | 3.42 µM
O=C1C=CC(=O)c2c(O)ccc(O)c21 | 4.61 µM

system: SF-268 CNS; experiment: DTP human tumour cell line panel, 48 h

SMILES | TGI
CCNCCCCNCCCCNCCCCNCCCCNCC | > 77.7 µM
COC1=CC(=O)c2c(ccc3ncnc(N)c23)C1=O | 6.72 µM
O=C1O[C@@H](c2ccccc2)C[C@H]1CN1CCOCC1 | > 100 µM
O=C1C=CC(=O)c2c(O)ccc(O)c21 | 8.39 µM

system: SK-OV-3 ovarian; experiment: DTP human tumour cell line panel, 48 h

SMILES | TGI
CCNCCCCNCCCCNCCCCNCCCCNCC | > 100 µM
COC1=CC(=O)c2c(ccc3ncnc(N)c23)C1=O | 16.3 µM
O=C1O[C@@H](c2ccccc2)C[C@H]1CN1CCOCC1 | > 100 µM
O=C1C=CC(=O)c2c(O)ccc(O)c21 | 27.5 µM

system: HOP-18 NSCLC; experiment: DTP human tumour cell line panel, 48 h

SMILES | TGI
CCNCCCCNCCCCNCCCCNCCCCNCC | > 100000 nM
O=C1C=CC(=O)c2c(O)ccc(O)c21 | 2170 nM

system: LOX IMVI melanoma; experiment: DTP human tumour cell line panel, 48 h

SMILES | TGI
CCNCCCCNCCCCNCCCCNCCCCNCC | > 100 µM
COC1=CC(=O)c2c(ccc3ncnc(N)c23)C1=O | 2.68 µM
O=C1O[C@@H](c2ccccc2)C[C@H]1CN1CCOCC1 | > 100 µM
O=C1C=CC(=O)c2c(O)ccc(O)c21 | 3.8 µM

system: 786-0 renal; experiment: DTP human tumour cell line panel, 48 h

SMILES | TGI
CCNCCCCNCCCCNCCCCNCCCCNCC | 98.6 µM
COC1=CC(=O)c2c(ccc3ncnc(N)c23)C1=O | 3.35 µM
O=C1O[C@@H](c2ccccc2)C[C@H]1CN1CCOCC1 | > 100 µM
O=C1C=CC(=O)c2c(O)ccc(O)c21 | 2.55 µM

system: MDA-N; experiment: DTP human tumour cell line panel, 48 h

SMILES | TGI
CCNCCCCNCCCCNCCCCNCCCCNCC | 61.8 µM
COC1=CC(=O)c2c(ccc3ncnc(N)c23)C1=O | 0.889 µM
O=C1C=CC(=O)c2c(O)ccc(O)c21 | 8.18 µM

system: HCT-116 colon; experiment: DTP human tumour cell line panel, 48 h

SMILES | TGI
CCNCCCCNCCCCNCCCCNCCCCNCC | > 100 µM
COC1=CC(=O)c2c(ccc3ncnc(N)c23)C1=O | 3.33 µM
O=C1C=CC(=O)c2c(O)ccc(O)c21 | 2.39 µM

system: SK-MEL-28 melanoma; experiment: DTP human tumour cell line panel, 48 h

SMILES | TGI
CCNCCCCNCCCCNCCCCNCCCCNCC | 52.6 µM
COC1=CC(=O)c2c(ccc3ncnc(N)c23)C1=O | 4.94 µM
O=C1O[C@@H](c2ccccc2)C[C@H]1CN1CCOCC1 | > 100 µM
O=C1C=CC(=O)c2c(O)ccc(O)c21 | 2.76 µM

system: SN12C renal; experiment: DTP human tumour cell line panel, 48 h

SMILES | TGI
CCNCCCCNCCCCNCCCCNCCCCNCC | > 100 µM
COC1=CC(=O)c2c(ccc3ncnc(N)c23)C1=O | 3.42 µM
O=C1O[C@@H](c2ccccc2)C[C@H]1CN1CCOCC1 | > 100 µM
O=C1C=CC(=O)c2c(O)ccc(O)c21 | 3.08 µM

system: TK-10 renal; experiment: DTP human tumour cell line panel, 48 h

SMILES | TGI
CCNCCCCNCCCCNCCCCNCCCCNCC | > 56.2 µM
COC1=CC(=O)c2c(ccc3ncnc(N)c23)C1=O | 8.75 µM
O=C1O[C@@H](c2ccccc2)C[C@H]1CN1CCOCC1 | > 100 µM
O=C1C=CC(=O)c2c(O)ccc(O)c21 | 2.75 µM

system: SF-539 CNS; experiment: DTP human tumour cell line panel, 48 h

SMILES | TGI
CCNCCCCNCCCCNCCCCNCCCCNCC | > 100 µM
COC1=CC(=O)c2c(ccc3ncnc(N)c23)C1=O | 3.41 µM
O=C1O[C@@H](c2ccccc2)C[C@H]1CN1CCOCC1 | > 100 µM
O=C1C=CC(=O)c2c(O)ccc(O)c21 | 5.84 µM

system: UACC-62 melanoma; experiment: DTP human tumour cell line panel, 48 h

SMILES | TGI
CCNCCCCNCCCCNCCCCNCCCCNCC | 43.8 µM
COC1=CC(=O)c2c(ccc3ncnc(N)c23)C1=O | 3.42 µM
O=C1O[C@@H](c2ccccc2)C[C@H]1CN1CCOCC1 | > 100 µM
O=C1C=CC(=O)c2c(O)ccc(O)c21 | 3.95 µM

system: ACHN renal; experiment: DTP human tumour cell line panel, 48 h

SMILES | TGI
CCNCCCCNCCCCNCCCCNCCCCNCC | > 100 µM
COC1=CC(=O)c2c(ccc3ncnc(N)c23)C1=O | 3.16 µM
O=C1O[C@@H](c2ccccc2)C[C@H]1CN1CCOCC1 | > 100 µM
O=C1C=CC(=O)c2c(O)ccc(O)c21 | 2.67 µM

system: A549 NSCLC; experiment: DTP human tumour cell line panel, 48 h

SMILES | TGI
CCNCCCCNCCCCNCCCCNCCCCNCC | > 100 µM
COC1=CC(=O)c2c(ccc3ncnc(N)c23)C1=O | 8.75 µM
O=C1O[C@@H](c2ccccc2)C[C@H]1CN1CCOCC1 | > 100 µM
O=C1C=CC(=O)c2c(O)ccc(O)c21 | 33.1 µM

system: RXF 393 renal; experiment: DTP human tumour cell line panel, 48 h

SMILES | TGI
CCNCCCCNCCCCNCCCCNCCCCNCC | > 52.6 µM
COC1=CC(=O)c2c(ccc3ncnc(N)c23)C1=O | 3.3 µM
O=C1O[C@@H](c2ccccc2)C[C@H]1CN1CCOCC1 | > 100 µM
O=C1C=CC(=O)c2c(O)ccc(O)c21 | 2.02 µM

system: NCI-H226 lung; experiment: DTP human tumour cell line panel, 48 h

SMILES | TGI
CCNCCCCNCCCCNCCCCNCCCCNCC | > 100 µM
COC1=CC(=O)c2c(ccc3ncnc(N)c23)C1=O | 4.6 µM
O=C1O[C@@H](c2ccccc2)C[C@H]1CN1CCOCC1 | > 100 µM
O=C1C=CC(=O)c2c(O)ccc(O)c21 | 18.5 µM

system: HL-60(TB) leukemia; experiment: DTP human tumour cell line panel, 48 h

SMILES | TGI
CCNCCCCNCCCCNCCCCNCCCCNCC | > 100000 nM
COC1=CC(=O)c2c(ccc3ncnc(N)c23)C1=O | 1490 nM
O=C1O[C@@H](c2ccccc2)C[C@H]1CN1CCOCC1 | > 100000 nM
O=C1C=CC(=O)c2c(O)ccc(O)c21 | 831 nM

system: MCF7 breast; experiment: DTP human tumour cell line panel, 48 h

SMILES | TGI
CCNCCCCNCCCCNCCCCNCCCCNCC | > 100 µM
COC1=CC(=O)c2c(ccc3ncnc(N)c23)C1=O | 4.12 µM
O=C1C=CC(=O)c2c(O)ccc(O)c21 | 6.59 µM

system: RPMI-8226 leukemia; experiment: DTP human tumour cell line panel, 48 h

SMILES | TGI
CCNCCCCNCCCCNCCCCNCCCCNCC | > 100 µM
COC1=CC(=O)c2c(ccc3ncnc(N)c23)C1=O | 3.62 µM
O=C1O[C@@H](c2ccccc2)C[C@H]1CN1CCOCC1 | > 100 µM

system: LXFL 529 NSCLC; experiment: DTP human tumour cell line panel, 48 h

SMILES | TGI
CCNCCCCNCCCCNCCCCNCCCCNCC | > 100 µM
COC1=CC(=O)c2c(ccc3ncnc(N)c23)C1=O | 3.2 µM
O=C1O[C@@H](c2ccccc2)C[C@H]1CN1CCOCC1 | > 100 µM
O=C1C=CC(=O)c2c(O)ccc(O)c21 | 1.64 µM

system: HS 578T breast; experiment: DTP human tumour cell line panel, 48 h

SMILES | TGI
CCNCCCCNCCCCNCCCCNCCCCNCC | 26.3 µM
COC1=CC(=O)c2c(ccc3ncnc(N)c23)C1=O | 7.52 µM
O=C1C=CC(=O)c2c(O)ccc(O)c21 | 6.57 µM

— PubChem BioAssay (NCI)
